Test results reported in article PMC6767265, “Cytotoxicity and Apoptosis Induction of Coumarins and Carbazole Alkaloids from Clausena Harmandiana” (Molecules, 2019).
Values joined by “and” are separate entries in the source; they are usually repeats but may differ in a detail not shown here. Equal values may be shown once. Marks after values point to notes of the source that are not given here.

Key:
[1] = tested on: human colon carcinoma cell line (HCT116); experiment: Cell viability assay (neutral red), HCT116; assay type: cell-based; set-up: key to IC50 HCT116: inactive: Inactive means cell viability percentage was >50% at the maximum concentration used (>100 µM for the compound or >100 µg/mL for the extract); conditions: for IC50 / IC50 HCT116: 24 h, neutral red, inactive = viability >50% at >100 µM; for Selectivity Index HCT116: cancer cells over noncancerous Vero cells
Method: (§1) The human lung adenocarcinoma cell line (SK-LU-1), human colon carcinoma cell line (HCT116), human hepatocellular carcinoma cell line (HepG2) and noncancerous African green monkey kidney epithelial cell line (Vero) were cultured in Dulbecco’s modified Eagle’s medium (DMEM) supplemented with 10% fetal bovine serum, 100 IU/mL penicillin and […] streptomycin. Cells were incubated at 37 °C with 95% air and 5% CO2 until they reached approximately 80% confluence before use.
(§2) Cell viability assay was assessed by neutral red (NR). Briefly, cells at a density of 3 × 10^4 cells/well were seeded in 96-wells plate and incubated for 24 h. […] After incubation time, cells were washed with PBS. NR reagent (50 µg/mL) was added to each well and incubated for another 2 h. After that, cells were washed with PBS and lyzed with 0.33% HCl in isopropanol. Cisplatin was used as a positive control. The absorbance of NR was detected using microplate reader (Tecan, Lyon, France) at 520 nm. The percentage of cell viability was calculated vis-à-vis the untreated cells and cytotoxicity was expressed as the inhibition concentration at 50% (IC50). The final DMSO concentration was not exceed 0.1%v/v to lessen the cytotoxicity (<10%).

[2] = tested on: human lung adenocarcinoma cell line (SK-LU-1); experiment: Cell viability assay (neutral red), SK-LU-1; assay type: cell-based; set-up: key to IC50 SK-LU-1: inactive: Inactive means cell viability percentage was >50% at the maximum concentration used (>100 µM for the compound or >100 µg/mL for the extract); conditions: for IC50 / IC50 SK-LU-1: 24 h, neutral red, inactive = viability >50% at >100 µM; for Selectivity Index SK-LU-1: cancer cells over noncancerous Vero cells
Method: as §1, §2

[3] = tested on: noncancerous African green monkey kidney epithelial cell line (Vero); experiment: Cell viability assay (neutral red), Vero; assay type: cell-based; set-up: key to IC50 Vero: inactive: Inactive means cell viability percentage was >50% at the maximum concentration used (>100 µM for the compound or >100 µg/mL for the extract); conditions: 24 h, inactive = viability >50% at >100 µM
Method: as §1
(§3) Cell viability assay was assessed by neutral red (NR). Briefly, cells at a density of 3 × 10^4 cells/well were seeded in 96-wells plate and incubated for 24 h. The sample at concentration, ranging from 10 to 500 µM, were added and incubated for 24 h. After incubation time, cells were washed with PBS. NR reagent (50 µg/mL) was added to each well and incubated for another 2 h. After that, cells were washed with PBS and lyzed with 0.33% HCl in isopropanol. Cisplatin was used as a positive control. The absorbance of NR was detected using microplate reader (Tecan, Lyon, France) at 520 nm. The percentage of cell viability was calculated vis-à-vis the untreated cells and cytotoxicity was expressed as the inhibition concentration at 50% (IC50). The final DMSO concentration was not exceed 0.1%v/v to lessen the cytotoxicity (<10%).

[4] = tested on: human hepatocellular carcinoma cell line (HepG2); experiment: Cell viability assay (neutral red), HepG2; assay type: cell-based; conditions: for IC50: 24 h, neutral red; for Selectivity Index HepG2: cancer cells over noncancerous Vero cells
Method: as §1, §3

[5] = DPPH radical scavenging assay; assay type: biochemical; conditions: for DPPH Assay IC50 / IC50: 30 min in the dark, absorbance 517 nm; for DPPH radical scavenging activity classification: classified from IC50 in µg/mL
Method: The 2,2–diphenyl–1–picrylhydrazyl (DPPH) radical scavenging assay was conducted as per the previous method. Briefly, the stock solutions of 10 mM DPPH was prepared in methanol. The DPPH was mixed with samples (100 µL each) at various concentrations (1−500 µM) in 96 wells plate and incubated for 30 min in a dark condition. The absorbance of DPPH radical was measured at 517 nm using a microplate reader (Tecan, Lyon, France). Trolox was used as a positive control. The half maximum inhibitory concentration (IC50 value) was calculated from the plot of percentage of DDPH radical inhibition versus concentration of samples using the following formula: % DPPH radical inhibition = [(Ab − As)/Ab] × 100,(1) where Ab = absorbance of the reagent blank, and As = absorbance of the sample. Each experiment was done in five replications and results are expressed as average values.

[6] = Ferric reducing antioxidant power (FRAP) assay; assay type: biochemical; conditions: 100 µM compound
Method: FRAP assay was performed following the pervious study with slight modification. FRAP reagent was prepared by mixing 300 mM acetate buffer (pH 3.6), 20 mM ferric chloride solution and 10 mM TPTZ solution in the ratio of 10:1:1 and incubated at 37 °C for 30 min. Then, 150 µL of FRAP reagent was added with 50 µL of the sample (100 µM of isolated compounds or 100 µg/mL of the CH2Cl2 crude extract) in each well of the 96-wells plate. The absorbance was measured at 595 nm using microplate reader (Tecan, Lyon, France). Trolox was used as a positive control. The FRAP value was calculated from the linear equation between the absorbance and ferrous sulfate standard curves (y = 0.0548x + 0.0213, R^2 = 0.9989) and expressed as µM of ferrous sulfate equivalents.

HepG2 cells = experiment: Mode of cell death by Annexin V-FITC/PI staining, flow cytometry; assay type: cell-based, human
Source text: In this study, double staining of cells by Annexin V-FITC/propidium iodide (PI) was used to differentiate apoptosis from necrosis. The stages of apoptosis can be distinguished from necrotic cell death by flow cytometry using Annexin V-FITC/PI double staining of HepG2 cells. During the early stages of apoptosis, the phosphatidylserine comprising the cell membrane will externalize to be exposed to the surface of apoptotic cells and bind with Annexin V-FITC, showing a cell dot plot in Quadrant 4. The cell dot plot is positively stained with Annexin V-FITC but negatively stained with PI (+/−). When cells are damaged or undergo a late state of apoptosis, cells will lose their membrane integrity, including nuclear membrane integrity, so that PI can pass through the nuclear membrane, showing a cell dot plot in Quadrant 2. […] During cell undergo necrotic cell death, cells are stained and appear in Quadrant 1 (−/+). Normal cells are not stained and appear in Quadrant 3 (−/−). The total apoptotic cell death percentage was counted from the percentage of cells undergoing an early state and late state of apoptosis gathering from Quadrants 4 and 2, while the necrotic cell death percentage was counted from Quadrant 1, as shown in Figure 2.
The Annexin V-FITC and PI apoptosis assay kit (BioLegend, San Diego, CA, USA) was used to determine mode of cell death as per previous report. The HepG2 cells (8 × 10^5 cell/mL) were seeded in a 24-well plate and incubated for 24 h. The compounds at a concentration of 1 x IC50 and 2 x IC50 were added and incubated for 12 and 24 h. After that, cells were washed with PBS and cold BioLegend’s cell staining buffer followed by staining with Annexin V-FITC and PI and cell were incubated in the dark for 15 min. The cells were analyzed by flow cytometry (BD FACSCanto II, BD Biosciences, San Jose, CA, USA) and the percentage of cells in different populations were calculated with FACSDiva software.

IC50 ([4]; Homo sapiens, HepG2) [µM]	DPPH Assay IC50 [5]	IC50 [5] [µM]	IC50 ([1]; Homo sapiens, HCT-116) [µM]	IC50 ([2]; Homo sapiens, SK-LU-1) [µM]	Structure (SMILES)	Selectivity Index HCT116 [1]	Selectivity Index SK-LU-1 [2]	IC50 Vero [3]	Selectivity Index HepG2 [4]	DPPH radical scavenging activity classification [5]	FRAP Value [6]	other results
65.5 ± 2.7	96.8 ± 1.1^g µg/mL	313 ± 3.4			COc1ccc2c(c1)[nH]c1c(CC=C(C)C)c(O)c(C=O)cc12 [7-Methoxyheptaphylline (7), 7-methoxyheptaphylline]	(1.0)	1.0)	inactive^bB	(1.5)	low radical scavenger	1.4 ± 0.1^g µM FeSO4 Equivalents	IC50 HCT116 [1]: inactive^bE; IC50 SK-LU-1 [2]: inactive^bF; FRAP Value ([6]; listed as 7-methoxyheptaphylline): 1.4 µM FeSO4 Equivalents
	4.2 ± 0.1^a µg/mL	16.8 ± 0.6			Cc1c(C)c2c(c(C)c1O)CCC(C)(C(=O)O)O2 (stereo not drawn) [Trolox, 6-hydroxy-2,5,7,8-tetramethylchroman-2-carboxylic acid, reference compound]					moderate radical scavenger	37.7 ± 0.8^c µM FeSO4 Equivalents	FRAP Value ([6]; listed as trolox): 37.7 µM FeSO4 Equivalents
47.6 ± 2.8	>500^h µg/mL	> 500	73.9 ± 2.5	45.4 ± 2.5	C=CC(C)(C)c1c2c(c(OC)c3ccc(=O)oc13)C=CC(C)(C)O2 [Dentatin (3), dentatin]	(1.4)	(2.2)	inactive^cB	(2.1)	no activity	4.7 ± 0.1^f µM FeSO4 Equivalents	FRAP Value ([6]; listed as dentatin): 4.7 µM FeSO4 Equivalents
29.9 ± 3.2	12.0 ± 0.8^c µg/mL	38.3 ± 2.5	63.6 ± 2.3	67.3 ± 1.2	C=CC(C)(C)c1c2c(c(O)c3ccc(=O)oc13)C=CC(C)(C)O2 [Nordentatin (6), nordentatin]	(1.6)	(1.5)	inactive^cB	(3.3)	moderate radical scavenger	9.0 ± 1.1^e µM FeSO4 Equivalents	FRAP Value ([6]; listed as nordentatin): 9.0 µM FeSO4 Equivalents

Second part, the molecule before the results:

Structure (SMILES)	IC50 ([4]; Homo sapiens, HepG2) [µM]	DPPH Assay IC50 [5]	IC50 [5] [µM]	IC50 ([1]; Homo sapiens, HCT-116) [µM]	IC50 ([2]; Homo sapiens, SK-LU-1) [µM]	Selectivity Index HCT116 [1]	Selectivity Index SK-LU-1 [2]	IC50 Vero [3]	Selectivity Index HepG2 [4]	DPPH radical scavenging activity classification [5]	FRAP Value [6]	other results
N.N.[Cl][Pt][Cl] [Cisplatin, reference compound]						(1.4)	(2.3)	inactive^dB	(4.6)			IC50 [1]: 71.9 ± 2.7 µM; IC50 [2]: 42.7 ± 1.9 µM; IC50 [4]: 21.8 ± 3 µM
C=CC(C)(C)c1cc2c(O)c3c(c(C(C)(C)C=C)c2oc1=O)OC(C)(C)C=C3 [Clausarin (2), clausarin]	17.6 ± 2.1	2.3 ± 0.3^a µg/mL	6 ± 0.8	44.9 ± 1.4	6.9 ± 1.6	(1.7)	(11.3)		(4.4)	high radical scavenger	45.2 ± 1.0^b µM FeSO4 Equivalents	IC50 ([3]; Chlorocebus sabaeus, Vero): 78.2 ± 3 µM; apoptotic cell death percentage (total, Quadrants 4 and 2) (HepG2 cells; HepG2, 1 × IC50, 12 h): 44.0 ± 1.2%; necrotic cell death percentage (Q1, Annexin V-FITC/PI −/+) (HepG2 cells; HepG2, 1 × IC50, 12 h): 6.8 ± 1.4%; necrotic cell death percentage (Q1, Annexin V-FITC/PI −/+) (HepG2 cells; HepG2, 2 × IC50, 12 h): 27.4 ± 3.8%; FRAP Value ([6]; listed as clausarin): 45.2 ± 1.0 µM FeSO4 Equivalents and 45.2 µM FeSO4 Equivalents
COc1ccc2c(c1)[nH]c1cc(O)c(C=O)cc12 [7-Methoxymukonal (5), 7-methoxymukonal]	82.6 ± 2.8	6.8 ± 0.5^b µg/mL	26.2 ± 2			(1.0)	(1.0)	inactive^bB	(1.2)	moderate radical scavenger	47.0 ± 0.6^a µM FeSO4 Equivalents	IC50 HCT116 [1]: inactive^bE; IC50 SK-LU-1 [2]: inactive^bF; FRAP Value ([6]; listed as 7-methoxymukonal): 47.0 µM FeSO4 Equivalents
CC(C)=CCc1c(O)c(C=O)cc2c1[nH]c1ccccc12 [Heptaphylline (1), heptaphylline]	37.8 ± 2.6	93.5 ± 2.2^f µg/mL	335 ± 7.8	74.7 ± 2.1	83.1 ± 2.6	(1.3)	(1.2)	inactive^dB	(2.6)	low radical scavenger	1.0 ± 0.0^g µM FeSO4 Equivalents	FRAP Value ([6]; listed as heptaphylline): 1.0 µM FeSO4 Equivalents
